Experiment [1] deals with T1, human polycystin-2 CTD EF hand (I704-P797) (Homo sapiens, UniProt Q13563).
T1 construct: The C-terminal fragment of the human polycystin-2 (I704-P797) was cloned into the PET19b vector; 10xHis (N); made in house; host or cells: E. coli BL21 (DE3)
T1 sequence (Q13563 704-797): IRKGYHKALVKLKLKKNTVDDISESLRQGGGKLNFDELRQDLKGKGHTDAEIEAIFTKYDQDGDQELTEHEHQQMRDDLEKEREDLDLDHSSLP
The experiment in a line: Isothermal titration calorimetry of divalent ions into the CTD of polycystin-2. As to conditions: 25° C; read-out: Ca2+ affinity (Kd) for WT human CTD EF hand. Type of experiment: binding. As for the experimental part:
CTD protein expression, purification, and isothermal titration calorimetry. The C-terminal fragment of the human polycystin-2 (I704-P797) was cloned into the PET19b vector and transformed into BL21 (DE3) competent cells (New England Biolabs) for bacterial expression. The translated peptide has a 10×His tag on its N-terminus. The alanine mutants of the individual calcium-coordinating residues were created and transformed as well. Cells were grown in 2XYT broth in a 37° C. shaking incubator until OD600 reaches ˜0.6, and were induced by 0.4 mM isopropyl 1-thio-β-D-galactopyranoside and grown for another 4 hours. Cells were harvested and resuspended in Buffer A (500 mM NaCl, 20 mM Tris/HCl, pH 7.4), 5% glycerol, 0.25 mM EDTA pH 8.0, 1 mM PMSF (RPI), 25 μg/ml of lysozyme and DNase I (GoldBio). The suspension was then lysed by sonication and clarified by centrifugation (30,000×g for 0.5 h). Filtered supernatant was loaded into a HisPur cobalt Superflow agarose column (ThermoScientific). The column was washed with 10 column volume (CV) of buffer A, 5 CV of buffer A+5 mM imidazole, and finally eluted with 3 CV of buffer A+100 mM imidazole. The eluate was desalted by dialysis in 150 mM NaCl, 20 mM Tris/HCl, 20 mM imidazole, pH 7.4. SDS-PAGE gel confirmed the expression, solubility, and purity of the peptide. All of our solutions were formulated with ultrapure water (Milli-Q® IQ 7005 water purification system), that has less than 0.29 ng/L calcium ions present. The binding affinity is recorded based on the heat difference between the sample cell and reference cell measured by MicroCal iTC200. […] The cells were insulated by an adiabatic jacket held at 25° C. The heat of dilution of Ca^2+ was not subtracted from data sets, as the signal was prohibitively small for several of the mutant channels. The exothermic energy of the bimolecular interaction between Ca^2+ and peptide during each injection was analyzed by integrating the change in heat to generate the binding isotherm. […]

Experiment [2] deals with T1, human polycystin-2 CTD EF hand (I704-P797). As to conditions: Yang et al., 2015; read-out: Kd previously reported for this peptide; cited from earlier work.
Another experiment concerns the target T2, polycystin-2L1 (Homo sapiens, UniProt Q9P0L9, C210S/C223S).
T2 construct: expressed in transfected cells; host or cells: HEK cells, transient overexpression
The format is cell-based. As to conditions: C210S:C223S mutant. The protocol: Electrophysiology. Ciliary ion currents were recorded using borosilicate glass electrodes polished to resistances of 14-22 MΩ using the cilium patch method previously described^32. Whole cell electrodes used to measure poly cystin-2L1 currents were fire polished to 1.5-4 MΩ resistances. Unless otherwise stated, whole cilia ionic currents were recorded in symmetrical [Na^+]. The pipette standard internal solution contained (in mM): 90 NaMES, 10 NaCl, 10 HEPES, 10 Na4-BAPTA (Glycine, N, N′-[1,2-ethanediylbis(oxy-2,1-phenylene)]bis[N-(carboxymethyl)]-,tetrasodium); pH was adjusted to 7.3 using NaOH. Standard bath solution contained 140 NaCl, 10 HEPES, 1.8 CaCl2); pH 7.4. All solutions were osmotically balanced to 295 (±6) mOsm with mannitol. Extracellular solutions containing TCEP and GSH were used within six hours of formulation. Data were collected using an Axopatch 200B patch clamp amplifier, Digidata 1440A, and pClamp 10 software. Whole-cilium and excised patch currents were digitized at 25 kHz and low-pass filtered at 10 kHz. In the whole cilium configuration, the holding potential was −60 mV and then depolarized using a 400 ms voltage ramp from −100 mV to 100 mV. The whole cell recordings of polycystin-2L1 currents were either activated by the same ramp protocol or by 100 ms depolarizations to 100 mV from a −100 mV holding potential. External conditions were controlled using a Warner Perfusion Fast-Step (SF-77B) system in which the patched cilia and electrode were held in the perfusate stream. Data were analyzed by Igor Pro 7.00 (Wavemetrics, Lake Oswego, Oreg.). The polycystin-2 open probability and the polycystin-2L1 tail current-voltage relationships were fit to a Boltzmann function, f(x)=1/(1+exp[V−V1/2]/k) to estimate voltage of half-maximal activation of current (V1/2).

The target in experiment [3] is T3, human PKD2 channel proteins (WT or C331S) (Homo sapiens, UniProt Q13563).
T3 construct: purified the C331S variant of polycystin-2 (residues 53-792) protein in amphipols; made in house
T3 sequence (Q13563 53-792 C331S): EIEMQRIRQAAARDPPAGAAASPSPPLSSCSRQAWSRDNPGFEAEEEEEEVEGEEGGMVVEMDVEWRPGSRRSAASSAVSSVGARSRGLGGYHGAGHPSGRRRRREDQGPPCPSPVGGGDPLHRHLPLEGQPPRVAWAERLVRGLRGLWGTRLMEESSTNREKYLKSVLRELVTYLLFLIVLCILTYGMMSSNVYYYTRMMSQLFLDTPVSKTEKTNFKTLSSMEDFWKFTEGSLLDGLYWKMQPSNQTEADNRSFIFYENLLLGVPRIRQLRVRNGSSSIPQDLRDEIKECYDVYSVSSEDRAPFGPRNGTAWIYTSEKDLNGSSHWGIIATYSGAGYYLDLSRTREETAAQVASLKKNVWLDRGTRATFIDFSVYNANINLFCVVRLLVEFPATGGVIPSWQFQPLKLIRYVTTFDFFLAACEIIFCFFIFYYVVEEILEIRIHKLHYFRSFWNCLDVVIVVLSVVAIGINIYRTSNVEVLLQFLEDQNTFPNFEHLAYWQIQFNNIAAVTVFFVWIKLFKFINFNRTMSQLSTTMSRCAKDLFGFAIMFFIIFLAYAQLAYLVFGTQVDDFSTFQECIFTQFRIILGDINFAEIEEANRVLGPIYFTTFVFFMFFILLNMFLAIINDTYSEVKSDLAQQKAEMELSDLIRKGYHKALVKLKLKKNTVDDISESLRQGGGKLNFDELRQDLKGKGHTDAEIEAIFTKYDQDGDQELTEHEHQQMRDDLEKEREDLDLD
The experiment in a line: Thermal stability assay (FSEC) of purified PKD2 channel proteins. To be noted: 10 mM GSH. As for the experimental part: Thermal stability assay. Approximately 9 μg of purified human PKD2 channel proteins (WT or C331S) in 30 μl buffer composed of 20 mM HEPES 150 mM NaCl, 2 mM CaCl2), 0.5 mM TCEP and 0.5 mM DDM (n-Dodecyl β-D-maltoside), at pH 7.4, were incubated at 4° C.-90° C. (4° C., room temperature, 30° C., 35.2° C., 39.3° C., 44.9° C., 49° C., 54° C., 60° C., 65.5° C., 69.4° C., 75° C., 79.3° C., 84° C., and 90° C.) for 10 minutes in a thermal cycler. To reduce the C331-C344 disulfide bond in the PKD2 channel, 10 mM GSH was added to all the buffers during purification and thermal stability assay. The treated channel samples were then diluted 10 times with the same buffer followed by centrifugation for 30 min at 40,000 rpm. 30 μl of each cleared channel samples were separated on an analytical size exclusion column (Superose™ 6 5/150 GL, GE Healthcare) at 0.3 ml/min flow rate. Proteins were detected by Tryptophan fluorescence. The FSEC-based thermostability experiments were performed in triplicates for each temperature point. The integrated area of the channel tetramer peak at different temperature points is normalized to that at 4° C. to generate the thermal stability plot.
We tested the thermal stability of PKD2 and the C331S variant in the presence or absence of NS1643. (See FIG. 33). We also performed Rosetta modeling. (See FIG. 35).

Like-named read-outs stand apart in the source and are kept apart here.

T2 sequence (Q9P0L9 whole entry C210S/C223S): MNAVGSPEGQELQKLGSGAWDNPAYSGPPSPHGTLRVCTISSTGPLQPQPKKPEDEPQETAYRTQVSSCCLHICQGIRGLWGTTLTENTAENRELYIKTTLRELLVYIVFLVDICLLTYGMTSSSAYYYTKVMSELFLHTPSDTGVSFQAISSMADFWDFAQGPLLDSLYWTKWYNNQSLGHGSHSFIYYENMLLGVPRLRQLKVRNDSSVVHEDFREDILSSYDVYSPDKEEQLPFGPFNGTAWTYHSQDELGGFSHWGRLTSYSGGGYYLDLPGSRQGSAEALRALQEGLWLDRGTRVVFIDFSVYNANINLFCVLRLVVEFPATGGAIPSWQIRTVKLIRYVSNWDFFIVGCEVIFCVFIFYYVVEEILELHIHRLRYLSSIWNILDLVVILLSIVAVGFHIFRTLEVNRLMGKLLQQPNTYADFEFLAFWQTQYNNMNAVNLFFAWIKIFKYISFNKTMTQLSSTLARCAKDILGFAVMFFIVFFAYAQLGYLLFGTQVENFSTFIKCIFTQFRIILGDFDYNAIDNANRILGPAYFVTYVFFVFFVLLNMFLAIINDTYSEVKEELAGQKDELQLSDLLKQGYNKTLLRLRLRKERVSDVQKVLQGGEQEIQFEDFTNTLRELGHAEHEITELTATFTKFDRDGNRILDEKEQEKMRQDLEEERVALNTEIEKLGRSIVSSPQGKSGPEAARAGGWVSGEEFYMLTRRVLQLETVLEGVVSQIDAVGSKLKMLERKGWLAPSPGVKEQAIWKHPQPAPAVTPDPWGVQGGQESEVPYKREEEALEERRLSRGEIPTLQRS

Turning to `[Ca+2]` [Ca^2+, calcium], the dissociation constant (Kd) (in general, the equilibrium constant for the complex coming apart) in experiment [1] was 19 ± 5 µM; in experiment [2], 22 µM.
As to `N[C@@H](CCC(=O)N[C@@H](CS)C(=O)NCC(=O)O)C(=O)O` [GSH, reduced glutathione], the “Effect on C210S:C223S polycystin-2L1 channel” value on polycystin-2L1 is reported as “insensitive”. For the same compound, the “Thermal denaturation of polycystin-2 channel protein under reducing conditions” value in experiment [3] is given as “denaturing at lower temperatures”.

The values above are taken from US20210369677A1, “SMALL MOLECULE ACTIVATORS OF POLYCYSTIN-2 (PKD2) AND USES THEREOF” (Northwestern University, priority 2020, published 2021).
